Among the test systems are OVCAR-3 ovarian; CAKI-1 renal; SK-MEL-28 melanoma; NCI-H460 lung; SK-MEL-2 melanoma; COLO 205 colon; RXF 393 renal; CCRF-CEM leukemia; UACC-62 melanoma; IGROV1 ovarian; MDA-MB-435; LOX IMVI melanoma.
Common to all, as to assay: growth of human tumour cells (NCI), 48 h

Where “and” joins values, the source holds several entries; their conditions need not be identical. Equal entries are not always repeated.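 Dose response: 5 concentrations. Exposure: 48 h. Format: 96-well plates. Endpoint: linear interpolation; highest concentration if not reached. At the GI50, growth is halved. The concentration for full growth arrest is given as TGI.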

Regarding `NC1=NC(OCC2(CO)CCC2)C=C(NCC2(CO)CCC2)N1` (stereo not given), the TGI in the assay on OVCAR-3 ovarian, in the assay with CAKI-1 renal, with SK-MEL-28 melanoma, with NCI-H460 lung, with SK-MEL-2 melanoma and with COLO 205 colon was above 100 µM in each case. Besides, the TGI in the assay with RXF 393 renal, in the assay on CCRF-CEM leukemia, in the assay on UACC-62 melanoma, in the assay with IGROV1 ovarian, with MDA-MB-435 and in the assay on LOX IMVI melanoma was above 100 µM throughout.
`CC1C[C@]2(C)C(=S)Nc3ccccc3[C@@H]2Nc2ccccc21` (stereo not given in full): the TGI in the assay with OVCAR-3 ovarian stood at 32.1 µM; with CAKI-1 renal, 79 µM; with SK-MEL-28 melanoma it was 12.7 µM; with NCI-H460 lung, 29.6 µM; with SK-MEL-2 melanoma, 32 µM; in the assay with COLO 205 colon, 33.8 µM. Moreover, the TGI with RXF 393 renal is 34.8 µM; with CCRF-CEM leukemia, 54.4 µM; with UACC-62 melanoma, 34.4 µM; with IGROV1 ovarian it was 40.3 µM; with MDA-MB-435, 31.2 µM; in the assay with LOX IMVI melanoma, 28.5 µM.
As for `CCOC(=O)CCC(NC(=O)c1ccc(Nc2nc3cc(C(F)(F)F)ccc3nc2-c2ccccc2)cc1)C(=O)OCC` (stereo not given), the TGI in the assay with OVCAR-3 ovarian, in the assay on CAKI-1 renal, in the assay on SK-MEL-28 melanoma, in the assay with NCI-H460 lung, with SK-MEL-2 melanoma and with COLO 205 colon was above 100 µM in each case. The TGI in the assay on RXF 393 renal, in the assay with CCRF-CEM leukemia, in the assay with UACC-62 melanoma, in the assay on IGROV1 ovarian, in the assay on MDA-MB-435 and in the assay with LOX IMVI melanoma was above 100 µM in each case.
For the compound `CC1(C)OCC(C2OC(N3O[C@H](CI)C[C@@H]3c3ccccc3)C3OC(C)(C)OC23)O1` (stereo not given in full), the TGI in the assay with OVCAR-3 ovarian, with CAKI-1 renal, in the assay on SK-MEL-28 melanoma, in the assay on NCI-H460 lung, with SK-MEL-2 melanoma and with COLO 205 colon was above 100 µM each time. In addition, the TGI in the assay with RXF 393 renal, with CCRF-CEM leukemia, with UACC-62 melanoma, in the assay with IGROV1 ovarian, in the assay with MDA-MB-435 and in the assay on LOX IMVI melanoma was above 100 µM throughout.
In the case of `O=C1CC2(CCC(O)(c3ccc(Cl)cc3)C(C(=O)c3ccc(Cl)cc3)C2)C(=O)c2ccccc2N1` (stereo not given), the TGI in the assay on OVCAR-3 ovarian is above 100 µM; in the assay with CAKI-1 renal, above 40.9 µM; in the assay on SK-MEL-28 melanoma it was 20.6 µM; with NCI-H460 lung, above 100 µM; with SK-MEL-2 melanoma, above 100 µM; in the assay on COLO 205 colon, above 56.5 µM. For the same compound, the TGI in the assay with RXF 393 renal was 22.3 µM; in the assay with CCRF-CEM leukemia it was 26.6 µM; in the assay on UACC-62 melanoma it was above 52.8 µM; in the assay with IGROV1 ovarian, above 52.1 µM; in the assay on MDA-MB-435, above 100 µM; in the assay on LOX IMVI melanoma it was above 86.8 µM.
Consider `O=[N+]([O-])C(=C(N1CCOCC1)N1CCOCC1)/C(Cl)=C(\Cl)[N+](=O)[O-]`, for which the TGI with OVCAR-3 ovarian was 13.5 µM; in the assay with CAKI-1 renal it was 3.04 µM; in the assay on SK-MEL-28 melanoma, 28.9 µM; in the assay on NCI-H460 lung, 70.7 µM; in the assay with SK-MEL-2 melanoma, 32.2 µM; in the assay on COLO 205 colon, 7.62 µM. In addition, the TGI in the assay on RXF 393 renal is 3.89 µM; with CCRF-CEM leukemia, 96.8 µM; in the assay with UACC-62 melanoma, 34.8 µM; with IGROV1 ovarian, 2.78 µM; with MDA-MB-435, 23.1 µM; in the assay on LOX IMVI melanoma, 5.19 µM.
`O=S1(=O)CCN(Cc2ccccc2)/C1=N\S(=O)(=O)c1ccc(Cl)cc1`: the TGI is 36.1 µM in the assay on OVCAR-3 ovarian; 33.2 µM in the assay with CAKI-1 renal; 32.8 µM in the assay with SK-MEL-28 melanoma; 48 µM in the assay with NCI-H460 lung; 53.3 µM in the assay with SK-MEL-2 melanoma; 34.3 µM with COLO 205 colon. Further, the TGI stood at 34.6 µM with RXF 393 renal; 85.5 µM in the assay on CCRF-CEM leukemia; 32 µM in the assay on UACC-62 melanoma; 32.5 µM in the assay with IGROV1 ovarian; 36.2 µM with MDA-MB-435; 33.5 µM in the assay on LOX IMVI melanoma.
As to `CN(C)CCO/N=C1/C=C2CC[C@H]3[C@@H]4CC[C@H](O)[C@@]4(C)CC[C@@H]3[C@@]2(C)CC1`, the TGI with OVCAR-3 ovarian is 61 µM; in the assay on CAKI-1 renal, above 66.8 µM; in the assay on SK-MEL-28 melanoma it was 35.1 µM; with NCI-H460 lung it was 21.9 µM; in the assay on SK-MEL-2 melanoma, 37.4 µM; in the assay on COLO 205 colon it was 34.9 µM. Also, the TGI with RXF 393 renal is 27.7 µM; in the assay with CCRF-CEM leukemia, above 21.6 µM; in the assay with UACC-62 melanoma it was 26 µM; with IGROV1 ovarian, 25.2 µM; in the assay on MDA-MB-435 it was 12.4 µM; in the assay on LOX IMVI melanoma, 60.2 µM.
Take `CC(=O)c1ccc2c(c1)oc(=O)n2CCN1CCCCC1`: the TGI with OVCAR-3 ovarian, in the assay with CAKI-1 renal, with SK-MEL-28 melanoma, in the assay on NCI-H460 lung, in the assay on SK-MEL-2 melanoma and in the assay with COLO 205 colon was above 100 µM each time. The TGI in the assay with RXF 393 renal, in the assay on CCRF-CEM leukemia, in the assay with UACC-62 melanoma, with IGROV1 ovarian, with MDA-MB-435 and in the assay with LOX IMVI melanoma was above 100 µM each time.
For the compound `Cn1c2nc3ccccc3c-2cc2ccccc21`, the TGI in the assay on OVCAR-3 ovarian is > 46.2 µM and 28 µM; in the assay on CAKI-1 renal, 8.7 µM and 37.1 µM; in the assay on SK-MEL-28 melanoma, > 43.2 µM and 23.1 µM; in the assay on NCI-H460 lung, 11.9 µM and 12.9 µM; in the assay on SK-MEL-2 melanoma it was 17.2 µM and 24 µM; in the assay with COLO 205 colon, > 35.9 µM and 17.2 µM. Further, the TGI was 14.8 µM and 20.1 µM in the assay with RXF 393 renal; > 43.5 µM and 25 µM in the assay with CCRF-CEM leukemia; 8.85 µM and 20.8 µM in the assay with UACC-62 melanoma; 25.5 µM and > 100 µM with IGROV1 ovarian; > 46.4 µM and 19 µM in the assay with MDA-MB-435; > 31.8 µM and 22.5 µM in the assay on LOX IMVI melanoma. For the same compound, the GI50 with CAKI-1 renal is 2.6 µM and 5.52 µM; in the assay on SK-MEL-28 melanoma, 4.87 µM and 10.8 µM; in the assay on SK-MEL-2 melanoma it was 3.94 µM and 11.1 µM; in the assay on RXF 393 renal, 3.45 µM and 7.68 µM; in the assay with UACC-62 melanoma, 3.05 µM and 8.55 µM.
